Experimental findings from patent US20050079549A1, “Methods for modeling GPCRs and for producing ligand blocking and receptor activating antibodies for same” (priority 2003, published 2005) are described below.

Assay [1] is described as follows: NMR spectra of mixtures of loop peptide and O-phosphoethanolamine. The format is binding. The note with it: mixture with O-phosphoethanolamine. An excerpt: NMR is used to characterize the interactions between the extracellular loops and O-phosphoethanolamine, a mimic of the S1P4 endogenous ligand to determine if potential for ligand binding exists.
The most important NMR result for the characterization of the interaction between the constrained peptides and O-phosphoethanolamine are heteronuclear 2D-NOE that allow derivation of the distances between the cationic nitrogens of R121 and R287 and the phosphate phosphorous atom of O-phosphoethanolamine. Additional information is derived from chemical shift changes of the protons in residues of the loop peptides upon addition of the phosphoethanolamine as well as chemical shift changes of protons on the phosphoethanolamine. Such chemical shift changes are indicative of changes in the electronic environment of these protons and are used in high-throughput NMR assays of ligand binding. (Shuker, S. B., Hajduk, P. J., Meadows, R. P. & Fesik, S. W. Discovering High-Affinity Ligands for Proteins: SAR by NMR. Science 274, 1531-1534 (1996)).

Assay [2] has as its system mock transfected CHO control cells. Nature of the assay: phospho ERK 1/2 ELISA in mock transfected CHO control cells. The format is cell-based. Particulars: 10 nM S1P, no antibody. Here is the method:
(§1) For example, CHO cells that are stably transfected with human S1P4 (formerly Edg 6) a GPCR (g protein coupled receptor) for sphingosine 1-phosphate (S1P) a lipid growth factor mediator or mock transfected CHO control cells are washed in DMEM and starved of serum for 4 hours at 37° C.
(§2) One million cells in 1 ml serum free DMEM were challenged with monoclonal antibodies that had been raised against a S1P4 cyclic molecular mimic loop 1B structure described herein for 10 minutes at room temperature. Monoclonal antibody supernatants containing DMEM with 10% fetal bovine serum antibiotics, L glutamine media supplements, were pretreated with cell culture tested Norite™ (Sigma Chemical Company) for 24 hours at 4 C to remove endogenous S1P from the media prior to the addition of supernatant to cells. Following antibody addition and incubation, 10 nM S1P was added for 15 minutes at 37 C. Controls of media alone, media and Norite™, media and 10 nM S1P, media-Norite™ and SIP, and media PMA were included. [drawing]

The target of assay [3] is T1, human S1P4 (formerly Edg 6) (Homo sapiens, UniProt O95977).
T1 sequence (O95977 1-384): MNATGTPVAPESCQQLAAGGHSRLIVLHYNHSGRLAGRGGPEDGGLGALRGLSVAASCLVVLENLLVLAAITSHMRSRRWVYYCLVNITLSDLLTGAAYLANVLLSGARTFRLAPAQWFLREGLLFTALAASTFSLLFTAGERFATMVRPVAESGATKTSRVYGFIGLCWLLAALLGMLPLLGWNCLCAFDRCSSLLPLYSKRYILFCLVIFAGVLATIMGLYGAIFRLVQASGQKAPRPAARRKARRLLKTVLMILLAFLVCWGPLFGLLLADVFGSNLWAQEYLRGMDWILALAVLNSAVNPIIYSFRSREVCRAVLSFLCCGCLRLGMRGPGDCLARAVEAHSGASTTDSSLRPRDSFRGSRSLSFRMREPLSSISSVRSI
Nature of the assay: phospho ERK 1/2 ELISA in CHO cells stably transfected with human S1P4. It counts as cell-based. Particulars: CHO EDG6 (S1P4); 10 nM S1P, no antibody. Here is the method:
as §1, §2
(In general: In an ELISA, binding on a coated surface is turned into a signal by an enzyme label.)

Take “TGAYLANVLLSGARTFRLAPAQWFLREGCLFT [Loop 1 B, conformationally constrained (disulfide) peptide mimicking S1P4 extracellular loop 1]”: the “ligand binding by NMR” value in assay [1] is “reflect ligand binding”. On the same count and under the same terms, the entry for “FLVWGPLFGLLLADVFGSNLWAQEYLRGMDWILAAVL [Loop 3, conformationally constrained peptide mimicking S1P4 extracellular loop 3]” is “reflect ligand binding”. For `CCCCCCCCCCCCC/C=C/[C@@H](O)[C@@H](N)COP(=O)(O)O` [Clone S1P, sphingosine 1-phosphate], the “phospho ERK 1/2” value in assay [2] turned out to be 0.000 ng/mL; in assay [3], 1.280 ng/mL.
